Results taken from patent EP4768484A1, “HETEROCYCLIC FUSED RING COMPOUND, AND COMPOSITION AND USE THEREOF” (Shenzhen TargetRx, Inc., priority 2023, dated 2025).

Columns and labels:
Assay type in all cases: cell-based
[1] = target: T1, Ba/F3 BCR-ABL1 T315I (Homo sapiens, UniProt P00519+P11274, T315I); test: Cell growth inhibitory activity assay (CellTiter-Glo), Ba/F3 BCR-ABL1 T315I cells; settings: 72 h, CTG cell viability
T1 construct: BCR (N-terminal fusion partner of the oncoprotein); expressed in transfected cells; host or cells: Ba/F3 (lentiviral transduction, monoclonal line)
Procedure: (§1) In this assay, the Celltiter-Glo (CTG) kit provided by Promega was used, and it is a homogeneous cell viability assay method. The cell viability of cultured cells was measured by quantifying ATP. K562 cells were purchased from Nanjing Kebai, product number CBP60529; Ba/F3 parental cells were purchased from RIKEN BRC, product number RCB0805; other cells containing BCR-ABL1 WT, BCR-ABL1 T315I, BCR-ABL1 T315M, BCR-ABL1 Y253H/E255K, BCR-ABL1 E255V/T3151, BCR-ABL1 A424T, BCR-ABL1 A337V, BCR-ABL1 P465S, BCR-ABL1 V468F, and BCR-ABL1 I502L were all monoclonal engineered cell lines obtained by transducting Ba/F3 parental cells with the lentivirus plasmids containing WT or corresponding mutated BCR-ABL1.
(§2) The steps of cell viability assay are as follows: • a) Cells in logarithmic growth phase were collected. Cell suspension was prepared and the cells were counted. Concentration of the cells was calculated. • b) The cell suspension was diluted to the required concentration and then added to the middle wells of a 96-well plate, and PBS was added to the edge wells. The wells with no cells and only culture medium were used as blank controls. • c) In addition to the cell plate used for compound analysis, another 96-well plate was prepared as a T0 plate, and 3-6 blank wells and 3-6 cell wells were added. The next day, CTG was used to test the cell viability as the T0 viability value of the cells. • d) The cell plate was incubated at 37 °C in a 5% CO2 incubator overnight. • e) The next day, each concentration of a compound subjected to a gradient dilution was added, and the cell plate was incubated at 37 °C in a 5% CO2 incubator for 72 h. The wells with no compound and only 0.5% DMSO were used as positive controls for cell growth. • f) CTG reagent (CellTiter-Glo kit) was added according to the manufacturer's instructions to test the cell viability value. • g) The plate was read using Biotek cytation3.0 microplate reader and the data were exported. • h) IC50 was calculated using GraphPad Prism 7.0 software.
(§3) The IC50 (half-maximal inhibitory concentration) of the compound was obtained using the following nonlinear fitting formula: Y = Bottom + (Top−Bottom)/(1+10^(∧)((LogIC50−X)*HillSlope)) [formula] • X: Log value of the compound concentration • Y: Inhibition rate (% inhibition) • Top: Maximum response • Bottom: Baseline response • HillSlope: Slope of the curve
(§4) The formula for calculating cell inhibition rate (inhibition rate %) was: [formula]

[2] = system: Ba/F3 parental cells; test: Cell growth inhibitory activity assay (CellTiter-Glo), Ba/F3 parental cells; settings: Mus musculus, BaF3, 72 h, CTG cell viability, read-out: IC50 Ba/F3 BCR-ABL1 Parental
Procedure: as §1, §2, §3, §4

[3] = system: K562 cells; test: Cell growth inhibitory activity assay (CellTiter-Glo), K562 cells; settings: Homo sapiens, 72 h, CTG cell viability
Procedure: as §1, §2, §3, §4

[4] = target: T2, Ba/F3 BCR-ABL1 WT (Homo sapiens, UniProt P00519+P11274); test: Cell growth inhibitory activity assay (CellTiter-Glo), Ba/F3 BCR-ABL1 WT cells; settings: 72 h, CTG cell viability
T2 construct: BCR (N-terminal fusion partner of the oncoprotein); expressed in transfected cells; host or cells: Ba/F3 (lentiviral transduction, monoclonal line)
Procedure: as §1, §2, §3, §4

Row | SMILES | IC50 [1] [nM] | IC50 [2] [nM] | IC50 [3] [nM] | IC50 [4] [nM]
1 | CC(C)n1cnc2cc(C(=O)Nc3ccc(OC(F)(F)Cl)cc3)cc(-c3cnc4c(c3)-c3nn(-c5ncc(F)cn5)cc3C4)c21 [T-121, N-(4-(chlorodifluoromethoxy)phenyl)-7-(2-(5-fluoropyrimidin-2-yl)-2,4-dihydropyrazolo[3',4':3,4]cyclopenta[1,2-b]pyridin-7-yl)-1-isopropyl-1H-benzo[d]imidazole-5-carboxamide] | ≤ 5 | > 1000 | ≤ 5 | ≤ 5
2 | C[C@@H]1COCc2nc3cc(C(=O)Nc4ccc(OC(F)(F)Cl)cc4)cc(-c4ccc5c(c4)-c4ncsc4C5)c3n21 [T-113, (R)-N-(4-(chlorodifluoromethoxy)phenyl)-6-(8H-indeno[1,2-d]thiazol-5-yl)-4-methyl-3,4-dihydro-1H-benzo[4,5]imidazo[2,1-c][1,4]oxazine-8-carboxamide] | 5 to 50 | > 1000 | ≤ 5 | ≤ 5
3 | C[C@@H]1COCc2nc3cc(C(=O)Nc4ccc(OC(F)(F)Cl)cc4)cc(-c4cnc5c(c4)-c4nn(-c6nccc(-c7cccnc7)n6)cc4C5)c3n21 [T-87, (R)-N-(4-(chlorodifluoromethoxy)phenyl)-4-methyl-6-(2-(4-(pyridin-3-yl)pyrimidin-2-yl)-2,4-dihydropyrazolo[3',4':3,4]cyclopenta[1,2-b]pyridin-7-yl)-3,4-dihydro-1H-benzo[4,5]imidazo[2,1-c][1,4]oxazine-8-carboxamide] | ≤ 5 | > 1000 | ≤ 5 | ≤ 5
4 | C[C@@H]1COCc2nc3cc(C(=O)Nc4ccc(OC(F)(F)Cl)cc4)cc(-c4cnc5c(c4)-c4nn(-c6ncc7c(ccn7C)n6)cc4C5)c3n21 [T-84, (R)-N-(4-(chlorodifluoromethoxy)phenyl)-4-methyl-6-(2-(5-methyl-5H-pyrrolo[3,2-d]pyrimidin-2-yl)-2,4-dihydropyrazolo[3',4':3,4]cyclopenta[1,2-b]pyridin-7-yl)-3,4-dihydro-1H-benzo[4,5]imidazo[2,1-c][1,4]oxazine-8-carboxamide] | ≤ 5 | > 1000 | ≤ 5 | ≤ 5
5 | CC(C)n1cc2c(n1)-c1cc(-c3cc(C(=O)Nc4ccc(OC(F)(F)Cl)cc4)cnc3N3CC[C@@H](F)C3)cnc1C2 [T-10-B, (R)-N-(4-(chlorodifluoromethoxy)phenyl)-6-(3-fluoropyrrolidin-1-yl)-5-(2-isopropyl-2,4-dihydropyrazolo[3',4':3,4]cyclopenta[1,2-b]pyridin-7-yl)nicotinamide] | ≤ 5 | > 1000 | ≤ 5 | ≤ 5
6 | CC(C)n1cnc2cc(C(=O)Nc3ccc(OC(F)(F)Cl)cc3)cc(-c3cnccn3)c21 [T-23, N-(4-(chlorodifluoromethoxy)phenyl)-1-isopropyl-7-(pyrazin-2-yl)-1H-benzo[d]imidazole-5-carboxamide] | 50 to 1000 | > 1000 | 5 to 50 | ≤ 5
7 | C[C@@H]1COCc2nc3cc(C(=O)Nc4ccc(OC(F)(F)Cl)cc4)cc(-c4cnc5c(c4)-c4nn(-c6ncccn6)cc4C5F)c3n21 (stereo partly drawn) [T-107, (4R)-N-(4-(chlorodifluoromethoxy)phenyl)-6-(4-fluoro-2-(pyrimidin-2-yl)-2,4-dihydropyrazolo[3',4':3,4]cyclopenta[1,2-b]pyridin-7-yl)-4-methyl-3,4-dihydro-1H-benzo[4,5]imidazo[2,1-c][1,4]oxazine-8-carboxamide] | ≤ 5 | – | ≤ 5 | ≤ 5
8 | C[C@@H]1COCc2nc3cc(C(=O)Nc4ccc(OC(F)(F)Cl)cc4)cc(-c4cnc5c(c4)-c4nn(C(F)F)cc4C5)c3n21 [T-51, (R)-N-(4-(chlorodifluoromethoxy)phenyl)-6-(2-(difluoromethyl)-2,4-dihydropyrazolo[3',4':3,4]cyclopenta[1,2-b]pyridin-7-yl)-4-methyl-3,4-dihydro-1H-benzo[4,5]imidazo[2,1-c][1,4]oxazine-8-carboxamide] | – | > 1000 | ≤ 5 | 5 to 50
9 | O=C(Nc1ccc(OC(F)(F)Cl)cc1)c1cc2c(c(-c3cnc4c(c3)-c3nn(-c5nccc(-c6cncc(F)c6)n5)cc3C4)c1)C1(CCCCC1)C(=O)N2 [T-140, N-(4-(chlorodifluoromethoxy)phenyl)-4'-(2-(4-(5-fluoropyridin-3-yl)pyrimidin-2-yl)-2,4-dihydropyrazolo[3',4':3,4]cyclopenta[1,2-b]pyridin-7-yl)-2'-oxospiro[cyclohexane-1,3'-indoline]-6'-carboxamide] | ≤ 5 | – | ≤ 5 | ≤ 5
10 | O=C(Nc1ccc(OC(F)(F)Cl)cc1)c1cnc(N2CC[C@@H](F)C2)c(-c2cnc3c(c2)-c2nn(-c4nccc(-c5cncc(F)c5)n4)cc2C3)c1 [T-142, (R)-N-(4-(chlorodifluoromethoxy)phenyl)-5-(2-(4-(5-fluoropyridin-3-yl)pyrimidin-2-yl)-2,4-dihydropyrazolo[3',4':3,4]cyclopenta[1,2-b]pyridin-7-yl)-6-(3-fluoropyrrolidin-1-yl)nicotinamide] | ≤ 5 | – | ≤ 5 | ≤ 5
11 | [2H]C1([2H])c2cn(-c3ncccn3)nc2-c2cc(-c3cc(C(=O)Nc4ccc(OC(F)(F)Cl)cc4)cc4nc5n(c34)[C@H](C)COC5)cnc21 [T-105, (R)-N-(4-(chlorodifluoromethoxy)phenyl)-4-methyl-6-(2-(pyrimidin-2-yl)-2,4-dihydropyrazolo[3',4':3,4]cyclopenta[1,2-b]pyridin-7-yl-4,4-d2)-3,4-dihydro-1H-benzo[4,5]imidazo[2,1-c][1,4]oxazine-8-carboxamide] | ≤ 5 | – | ≤ 5 | ≤ 5
12 | O=C(Nc1ccc(OC(F)(F)Cl)cc1)c1cc2c(c(-c3cnc4c(c3)-c3nn(-c5nccc(-c6ccc(F)nc6)n5)cc3C4)c1)C1(CCCCC1)C(=O)N2 [T-139, N-(4-(chlorodifluoromethoxy)phenyl)-4'-(2-(4-(6-fluoropyridin-3-yl)pyrimidin-2-yl)-2,4-dihydropyrazolo[3',4':3,4]cyclopenta[1,2-b]pyridin-7-yl)-2'-oxospiro[cyclohexane-1,3'-indoline]-6'-carboxamide] | ≤ 5 | – | ≤ 5 | ≤ 5
13 | O=C(Nc1ccc(OC(F)(F)Cl)cc1)c1cnc(N2CC[C@@H](F)C2)c(-c2cnc3c(c2)-c2nn(-c4nccc(-c5ccc(F)nc5)n4)cc2C3)c1 [T-141, (R)-N-(4-(chlorodifluoromethoxy)phenyl)-5-(2-(4-(6-fluoropyridin-3-yl)pyrimidin-2-yl)-2,4-dihydropyrazolo[3',4':3,4]cyclopenta[1,2-b]pyridin-7-yl)-6-(3--fluoropyrrolidin-1-yl)nicotinamide] | ≤ 5 | – | ≤ 5 | ≤ 5
14 | C[C@@H]1COCc2nc3cc(C(=O)Nc4ccc(OC(F)(F)Cl)cc4)cc(-c4cnc5c(c4)-c4nn(-c6ncccn6)cc4C5O)c3n21 (stereo partly drawn) [T-106, (4R)-N-(4-(chlorodifluoromethoxy)phenyl)-6-(4-hydroxy-2-(pyrimidin-2-yl)-2,4-dihydropyrazolo[3',4':3,4]cyclopenta[1,2-b]pyridin-7-yl)-4-methyl-3,4-dihydro-1H-benzo[4,5]imidazo[2,1-c][1,4]oxazine-8-carboxamide] | ≤ 5 | – | ≤ 5 | ≤ 5
15 | Cn1ccc(-c2ccnc(-n3cc4c(n3)-c3cc(-c5cc(C(=O)Nc6ccc(OC(F)(F)Cl)cc6)cc6c5C5(CCCCC5)C(=O)N6)cnc3C4)n2)n1 [T-138, N-(4-(chlorodifluoromethoxy)phenyl)-4'-(2-(4-(1-methyl-1H-pyrazol-3-yl)pyrimidin-2-yl)-2,4-dihydropyrazolo[3',4':3,4]cyclopenta[1,2-b]pyridin-7-yl)-2'-oxospiro[cyclohexane-1,3'-indoline]-6'-carboxamide] | ≤ 5 | – | ≤ 5 | ≤ 5
